From US20260109700A1, “NITROGEN-CONTAINING HETEROCYCLIC COMPOUNDS AND PHARMACEUTICALLY ACCEPTABLE SALTS THEREOF, PREPARATION METHOD THEREFOR, AND THE USE THEREOF” (NEUSHEN THERAPEUTICS (SHANGHAI) CO., LTD, priority 2022, published 2026)
Blank lines part the entries; values can stand above or below the compound they belong to.

Assays:
human M4 receptor = target: T1, human M4 receptor (Homo sapiens, UniProt P08173); experiment: PAM activity on M4 receptor, FLIPR CALCIUM 6 assay in M4-Gα15-CHO cells with acetylcholine; format: cell-based; settings: PAM mode with acetylcholine agonist, FLIPR calcium signal
T1 construct: expressed in transfected cells
T1 sequence (P08173 1-479): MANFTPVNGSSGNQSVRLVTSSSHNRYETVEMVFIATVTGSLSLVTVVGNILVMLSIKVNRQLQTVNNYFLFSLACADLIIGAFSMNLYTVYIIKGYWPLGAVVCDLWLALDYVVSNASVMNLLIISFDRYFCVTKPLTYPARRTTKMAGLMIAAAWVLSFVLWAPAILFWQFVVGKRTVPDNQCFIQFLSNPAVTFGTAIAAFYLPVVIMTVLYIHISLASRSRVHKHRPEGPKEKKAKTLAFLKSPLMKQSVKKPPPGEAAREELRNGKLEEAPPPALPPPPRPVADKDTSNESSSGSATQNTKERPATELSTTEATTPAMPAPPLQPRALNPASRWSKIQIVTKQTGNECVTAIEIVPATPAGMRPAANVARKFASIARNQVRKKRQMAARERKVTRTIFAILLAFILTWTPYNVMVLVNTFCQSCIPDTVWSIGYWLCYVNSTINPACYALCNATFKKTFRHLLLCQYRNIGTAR
Description: The activity of compounds on M4 receptor was determined by FLIPR CALCIUM 6 ASSAY KIT using a stable transfected cell line expressing human M4 receptor (M4-Gα15-CHO).
1. This study uses a CHO cell line stably expressing M4-Gα15 receptor, which expresses human CHRM4 and GNA15 genes, respectively.
2. Cell treatment: M4-Gα15-CHO cells were cultured in F-12 medium containing 10% fetal bovine serum, 0.4 mg/mL hygromycin B, and 0.8 mg/mL geneticin G418, with a culture temperature of 37° C. and a CO2 concentration of 5%. The old media was removed and the cells were washed once with phosphate buffered saline. 1 mL of trypsin solution was then added, and the mixture was incubated at 37° C. for approximately 2 minutes. After the cells were detached from the dish, approximately 5 mL of complete media pre-warmed at 37° C. was added. The cell suspension was gently pipetted to separate the aggregated cells. The cell suspension was transferred to a sterile centrifuge tube and centrifuged at 1000 rpm for 5 minutes.
1. Cell plating: M4-Gα15-CHO cells were digested and collected, then resuspended and counted, and seeded into a 384-well cell plate at a density of 1.2×10^4 cells/25 μL/well. The cell plate was then incubated in a 5% CO2 incubator at 37° C. for approximately 20 hours.
2. Preparation of loading buffer according to the instructions of FLIPR CALCIUM 6 ASSAY KIT after 24 hours: Component A was freeze-thawed to room temperature, and diluted with assay buffer and probenecid solution to obtain a loading buffer, which was kept at room temperature for later use.
3. The medium was removed from the cell plate, and 35 µL of loading buffer was quickly added to each well. After centrifugation, the cell plate was incubated at 37° C. in the dark for 120 minutes.
4. A working solution of the compound to be tested was prepared, 5 μL of which was transferred to the corresponding cell wells, and incubated at 37° C. in the dark for 30 minutes.
5. 30 nM acetylcholine agonist working solution was prepared and transferred to a 384-well loading plate at 20 μL/well.
6. The cell plate, the loading plate, and the pipette tip were placed at the corresponding positions of the FLIPR instrument. 10 μL of the agonist diluted in step 5 was added to the experimental wells using FLIPR, and data were collected at a wavelength of 515 nm to 575 nm.
7. The signal value was plotted against compound concentration. Curve fitting and EC50 calculation were performed by nonlinear regression method using GraphPad Prism software.
1. 0.5 mol/L 2-(4-(2-hydroxyethyl)piperazine)ethanesulfonic acid buffer was mixed with Hanks' balanced salt solution (pH 7.4) at a volume ratio of 1:24 to prepare an assay buffer. 10 mL of assay buffer was added to a vial of CALCIUM 6 ASSAY KIT Component A in the form of lyophilized powder, and aliquoted and stored at −20° C.
2. Probenecid powder was dissolved in 1 mol/L sodium hydroxide solution to a final concentration of […]. The assay buffer, freeze-thawed Component A, and probenecid solution were mixed at a volume ratio of 44:5:1 to prepare a loading buffer.

[1] = Pharmacokinetic properties in vivo in mice (iv and oral); settings: mouse, plasma, CD-1 mice, oral 2.0 mg/kg; for bioavailability / clearance / Vd / Cmax: iv 1.0 mg/kg; for bioavailability: read-out: Bioavailability F; for clearance: read-out: Clearance CL; for Vd: read-out: Volume of distribution at steady state Vdss; for AUC(0-t): read-out: Area under the curve AUC0-last, po; for half-life: read-out: Half-life T1/2, po (converted); for Cmax: read-out: Peak concentration Cmax
Description: The compounds obtained in the examples of the present disclosure were evaluated for their pharmacokinetic properties in vivo in CD-1 mice.
The compounds were tested for their pharmacokinetic characteristics in rodents after intravenous injection and oral administration following standard protocols. In the experiment, the candidate compound was prepared into a clear solution or suspension with a specified vehicle, and administered to three mice via single-dose intravenous injection and oral administration, respectively. The vehicle for both intravenous injection and oral administration was 5% dimethyl sulfoxide+95% (10% polyethylene glycol (15)-hydroxystearate in water). Whole blood samples within 24 hours were collected into a commercial EDTA2K anticoagulant tube, followed by centrifugation to obtain the upper plasma sample, and acetonitrile solution containing internal standard was added to precipitate proteins. After centrifugation, the supernatant was mixed with an equal volume of water, and after another centrifugation, the supernatant was taken for injection. Plasma concentration was quantitatively analyzed using LCMS/MS analysis method, and pharmacokinetic parameters were calculated.

[2] = system: patients with schizophrenia; settings: phase Ib; cited from earlier work
patients = settings: cited from earlier work
mice = settings: genetic mouse model of schizophrenia; cited from earlier work

Compound: Cc1nnc(C)c2c1CN(C(=O)CC1CN(c3ccnc(SC(F)(F)F)c3)C1)C2 [Example 68]
- EC50 (human M4 receptor): 0.48 µM

Compound: Cc1cc(C)c2c(n1)CN(C(=O)CC1CN(c3ccnc(C(F)(F)F)c3)C1)C2 [CVL-231]
- PANSS total score [2]: significantly reduce

Compound: Cc1nsc(N2CC(CC(=O)N3Cc4c(C)nnc(N5CCC5)c4C3)C2)n1 [Example 50]
- EC50 (human M4 receptor): 1.78 µM

Compound: Cc1nnc(C2CC2)c2c1CN(C(=O)CC1CN(c3ccnc(OCC(F)(F)F)c3)C1)C2 [Example 98]
- EC50 (human M4 receptor): 1.13 µM

Compound: Cc1nnc(C)c2c1CN(C(=O)CC1CN(c3ccnc(O[C@@H](C)C(F)(F)F)c3)C1)C2 [Example 116]
- EC50 (human M4 receptor): 0.58 µM

Compound: CCc1nnc(C)c2c1CN(C(=O)CC1CN(c3ccnc(OCC(F)(F)F)c3)C1)C2 [Example 110]
- EC50 (human M4 receptor): 0.9 µM

Compound: Cc1nnc(N2CCC2)c2c1CN(C(=O)CC1CN(c3ccnc(C(F)(F)F)c3)C1C)C2 (stereo not drawn) [Example 51]
- EC50 (human M4 receptor): 1.37 µM

Compound: CCCCCCOc1nsnc1C1=CCCN(C)C1 [Xanomeline]
- toxic and side effects (patients; peripheral nervous system and digestive tract): serious toxic and side effects
- cognitive function of patients (patients; phase II clinical trial, Alzheimer's disease): improvement in the cognitive function

Compound: Cc1c(Cc2ccc(-n3cccn3)cc2)cc2c(c1F)CN([C@H]1COCC[C@@H]1O)C2=O [TAK-071]
- deficits in memory cognition, social competence, and sensory-motor gating (mice): significantly ameliorates

Results, then the compound that gave them:

- EC50 (human M4 receptor): 0.39 µM
- bioavailability [1]: 82.7%
- clearance [1]: 3.32 mL/min/kg
- Vd [1]: 1.53 L/kg
- AUC(0-t) [1]: 8040 ng·h/mL
- half-life [1]: 4.78 h
- Cmax [1]: 827 ng/mL
Compound: Cc1nnc(C)c2c1CN(C(=O)CC1CN(c3ccnc(OCC(F)(F)F)c3)C1)C2 [Example 67]

- EC50 (human M4 receptor): 0.35 µM
- bioavailability [1]: 86.6%
- clearance [1]: 17.1 mL/min/kg
- Vd [1]: 2.3 L/kg
- AUC(0-t) [1]: 1690 ng·h/mL
- half-life [1]: 1.13 h
- Cmax [1]: 614 ng/mL
Compound: Cc1nnc(N2CCC2)c2c1CN(C(=O)CC1CN(c3ccnc(C(F)(F)F)c3)C1)C2 [Example 12]

- EC50 (human M4 receptor): 0.29 µM
- bioavailability [1]: 80.6%
- clearance [1]: 7.65 mL/min/kg
- Vd [1]: 3.72 L/kg
- AUC(0-t) [1]: 3470 ng·h/mL
- half-life [1]: 4.65 h
- Cmax [1]: 345 ng/mL
Compound: Cc1nnc(C)c2c1CN(C(=O)CC1CN(c3ccnc(O[C@H](C)C(F)(F)F)c3)C1)C2 [Example 89]

- EC50 (human M4 receptor): 0.25 µM
Compound: Cc1nnc(N2CCC2)c2c1CN(C(=O)CC1CN(c3ccnc(OCC(F)(F)F)c3)C1)C2 [Example 47]

- EC50 (human M4 receptor): 0.387 µM
Compound: Cc1nnc(C)c2c1CN(C(=O)CC1CN(c3ccnc(C(F)(F)F)c3)C1)C2 [Example 24]
